Measurements published in US12558337B2, “Formulations comprising melflufen” (ON[…], priority 2019, dated 2026).
Several values for one entry are separate records, joined by “and”; a condition that tells them apart may be missing. Equal values may be shown once.

What was measured:
Format in all cases: physicochemical
[1] = Stability of isolated melflufen freebase oil; conditions: colorless oil; room temperature; several days
Method: The hydrochloride salt of melflufen may be prepared as disclosed in WO 01/96367, which is incorporated herein by reference. Ethanesulfonate, maleate and p-toluenesulfonate salts of melflufen were prepared by treating the melflufen freebase with 1 equivalent of the respective acid in dichloromethane or ethyl acetate. If required, heptane was added to initiate salt precipitation. All salts were isolated as white solids in a 1:1 ratio of melflufen and counterion, and dried under high vacuum. Melflufen freebase was prepared from melflufen hydrochloride using NaHCO3 and dichloromethane (DCM). Melflufen hydrochloride was suspended in 100 mL of dichloromethane before an ice-cold solution of NaHCO3(aq) was added. The mixture was shaken for 30 seconds and the phases were allowed to settle. The organic phase was collected and dried over MgSO4 before the solvent was removed in vacuo at 0° C. Melflufen freebase was isolated as a colorless oil. No degradation of melflufen was observed by HPLC analysis and the oil was stable at room temperature for several days.

[2] = Stability study of formulation containing melflufen (OPD-5) and propylene glycol at 2-8° C., 25° C. and 40° C. (RP-HPLC, visual appearance); conditions: in propylene glycol; for change in melflufen concentration on storage: up to 168 days
Method: (§1) Vials (2R type 1 glass vials, Gerresheimer, #35601558) were washed with purified water (≤0.2 μmS/cm, <10 ppb Total Organic Carbon (TOC)). Afterwards, the vials were dried and heat-treated at 300° C. for 2 hours. Rubber stoppers were autoclaved at 121° C. and 2 bar for 15 min.
(§2) The formulation was prepared by dissolving melflufen (OPD-5) at a concentration of approximately 20 mg/mL (excluding the mass of the counterion) in propylene glycol (1,2-Propanediol, EMPROVE® exp Ph Eur, BP, USP, Merck Chemicals, #K49954578). 1 mL of the melflufen solution was added into each vial. The filled vials were then closed with a rubber stopper and crimp capped. The 1 mL samples were analysed at T0 (i.e. before storage) and after storage for approximately 4 weeks (T1), 8 weeks (T2), 12 weeks (T3), and 24 weeks (T4) at 2-8° C., 25° C. or 40° C.
(§3) RP-HPLC analysis was performed using an Agilent 1100 series Liquid Chromatography, and an)(Bridge® Shield (RP18, 3.5 μm, 4.6×150 mm) column. The method used a 0-80% B gradient over 20 min and a flow of 1.0 mL/min (mobile phase A: 10 mM ammonium acetate pH 5.0/acetonitrile 86/14 v/v; mobile phase B: acetonitrile), a column temperature of 20° C., a sampler temperature of 5° C., and UV detection at 262 nm. The pharmaceutical formulations were diluted to a melflufen concentration of 0.8 mg/mL using an ethanol/acetonitrile diluent (3:7 v/v) prior to RP-HPLC analysis.

[3] = Stability study of formulation containing melflufen (OPD-5) and PEG 300 at 2-8° C., 25° C. and 40° C. (RP-HPLC, visual appearance); conditions: in PEG 300; for change in melflufen concentration on storage: up to 164 days
Method: as §1
(§4) The formulation was prepared by dissolving melflufen (OPD-5) at a concentration of approximately 20 mg/mL (excluding the mass of the counterion) in polyethylene glycol (polyethylene glycol 300, Emprove exp., Ph. Eur, Merck Chemicals, #K47544702). 1 mL of the melflufen solution was added into each vial. The filled vials were then closed with a rubber stopper and crimp capped. The 1 mL samples were analysed at T0 (i.e. before storage) and after storage for approximately 4 weeks (T1a), 8 weeks (T2a), 12 weeks (T3a), and 24 weeks (T4a) at 2-8° C., 25° C. or 40° C.
as §3, with “an XBridge®” for “an)(Bridge®”

[4] = Stability study of formulation containing melflufen (OPD-5) and propylene glycol at −20° C. and −70° C.; conditions: in propylene glycol
Method: 536.25 mg of melflufen (OPD-5) was weighed into a […] volumetric flask. The flask was then filled with propylene glycol (W294004-1 Kg-K, Lot no: MKCD8681, Sigma-Aldrich). The resulting mixture was vortexed for 3 minutes. The mixture was then stirred for 15 minutes at 28° C. with occasional vortexing to furnish a clear solution having a melflufen concentration of approximately 20 mg/mL (excluding the mass of the counterion). The solution was aliquoted into 1 mL vials and stored at −70° C. or at −20° C.
The concentration and purity (% relative peak area) of melflufen in the propylene glycol formulation was analysed at time 0 (T0b) and then every 1 month by RP-HPLC. For each time point, two replicated were analysed (i.e. two separate vials of the formulation). At each time point the vials were visually checked for any color change or precipitation.
RP-HPLC analysis was performed using an Agilent 1100 series Liquid Chromatography, and an XBridge® C18 (2.1×100 mm, 3.5 μm) column. The method used a 5-95% B gradient over 6 min and a flow of 0.8 mL/min (mobile phase A: 0.1% formic acid in water; mobile phase B: 0.1% formic acid in acetonitrile), a column temperature of 55° C., a sampler temperature of 25° C., and UV detection at 262 nm. Samples were then diluted to 200 μg/mL concentration in DMA before injection into RP-HPLC. An injection volume of 5 μL was used.

[5] = Solubility of melflufen (OPD-5) in propylene glycol; conditions: approximately 20 mg/mL prepared
Method: as §2

[6] = Solubility of melflufen (OPD-5) in PEG 300; conditions: approximately 20 mg/mL prepared
Method: as §4

[7] = 2-8° C., T1 (31 days), hydrochloride
[8] = 2-8° C., T4 (168 days), hydrochloride
[9] = 25° C., T1 (31 days), hydrochloride
[10] = 25° C., T3 (98 days), hydrochloride
[11] = 25° C., T4 (168 days), hydrochloride
[12] = 40° C. (accelerated storage condition), over time
[13] = 2-8° C., T1a (26 days), hydrochloride
[14] = 2-8° C., T2a (54 days), hydrochloride
[15] = 2-8° C., T3a (94 days), hydrochloride
[16] = 25° C., T1a (26 days), hydrochloride
[17] = 25° C., T2a (54 days), hydrochloride
[18] = 25° C., T3a (94 days), hydrochloride
[19] = 25° C., T4a (164 days), hydrochloride

CCOC(=O)[C@H](Cc1ccc(F)cc1)NC(=O)[C@@H](N)Cc1ccc(N(CCCl)CCCl)cc1 [Melflufen freebase, L-Melphalanyl-4-fluoro-L-phenylalanine ethyl ester]
stability of the oil [1]: stable

Cl.[2H]C([2H])([2H])C([2H])([2H])OC(=O)[C@H](Cc1ccc(F)cc1)NC(=O)[C@@H](N)Cc1ccc(N(CCCl)CCCl)cc1 [OPD-5, (^2H5)ethyl (2S)-2-[(2S)-2-amino-3-{4-[bis(2-chloroethyl)amino]phenyl}propanamido]-3-(4-fluorophenyl)propanoate hydrochloride]
Concentration of melfufen (ODP-5) [2, 7]: 20100 µg/mL and 20200 µg/mL | Purity of melfufen (ODP-5) [2, 7]: 99.1 % relative peak area and 99.3 % relative peak area | Purity of melfufen (ODP-5) ([2]; 2-8° C., T2 (59 days)): 99.2 % relative peak area | Concentration of melfufen (ODP-5) ([2]; 2-8° C., T2 (59 days), hydrochloride): 19800 µg/mL and 20300 µg/mL | Concentration of melfufen (ODP-5) ([2]; 2-8° C., T3 (98 days)): 20500 µg/mL | Purity of melfufen (ODP-5) ([2]; 2-8° C., T3 (98 days), hydrochloride): 99.0 % relative peak area and 98.5 % relative peak area | Concentration of melfufen (ODP-5) [2, 8]: 18400 µg/mL and 18300 µg/mL | Purity of melfufen (ODP-5) [2, 8]: 95.4 % relative peak area and 95.8 % relative peak area | visual appearance ([2]; 2-8° C., at each time point (T1, T2, T3 and T4)): no visible colouration | change in melflufen concentration on storage ([2]; 2-8° C.): no significant change | Concentration of melfufen (ODP-5) [2, 9]: 15700 µg/mL and 15800 µg/mL | Purity of melfufen (ODP-5) [2, 9]: 89.0 % relative peak area and 89.3 % relative peak area | Purity of melfufen (ODP-5) ([2]; 25° C., T2 (59 days)): 81.3 % relative peak area | Concentration of melfufen (ODP-5) ([2]; 25° C., T2 (59 days), hydrochloride): 14100 µg/mL and 12200 µg/mL | Concentration of melfufen (ODP-5) [2, 10]: 8800 µg/mL and 8400 µg/mL | Purity of melfufen (ODP-5) [2, 10]: 68.1 % relative peak area and 66.6 % relative peak area | Concentration of melfufen (ODP-5) [2, 11]: 5100 µg/mL and 4900 µg/mL | Purity of melfufen (ODP-5) [2, 11]: 49.9 % relative peak area and 48.7 % relative peak area | visual appearance ([2]; 25° C., over time (T1 to T4)): yellow to brown colouration that increased in intensity over time | change in melflufen concentration on storage ([2]; 25° C.): decrease over time | visual appearance [2, 12]: yellow to brown colouration that increased in intensity over time | melflufen purity retained (relative to the melflufen purity before storage of the formulation) ([2]; about 5° C. (2 to 8° C.), over 50 days): greater than 95% | visual appearance ([3]; 2-8° C., 26 days (T1a)): slight yellow colouration | visual appearance ([3]; 2-8° C., 54 days (T2a), 94 days (T3a) and 164 days (T4a)): small increase in the intensity of the yellow colouration | Concentration of melfufen (ODP-5) [3, 13]: 19900 µg/mL and 19800 µg/mL | Purity of melfufen (ODP-5) [3, 13]: 96.7 % relative peak area and 96.9 % relative peak area | Concentration of melfufen (ODP-5) [3, 14]: 19900 µg/mL and 19300 µg/mL | Purity of melfufen (ODP-5) [3, 14]: 95.2 % relative peak area and 95.5 % relative peak area | Concentration of melfufen (ODP-5) [3, 15]: 18700 µg/mL and 18900 µg/mL | Purity of melfufen (ODP-5) [3, 15]: 92.7 % relative peak area and 92.6 % relative peak area | Concentration of melfufen (ODP-5) ([3]; 2-8° C., T4a (164 days)): 18700 µg/mL | Purity of melfufen (ODP-5) ([3]; 2-8° C., T4a (164 days), hydrochloride): 91.4 % relative peak area and 91.3 % relative peak area | change in melflufen concentration on storage ([3]; 2-8° C.): no significant change | Concentration of melfufen (ODP-5) [3, 16]: 18100 µg/mL and 17900 µg/mL | Purity of melfufen (ODP-5) [3, 16]: 89.3 % relative peak area and 89.6 % relative peak area | Concentration of melfufen (ODP-5) [3, 17]: 14400 µg/mL and 15300 µg/mL | Purity of melfufen (ODP-5) [3, 17]: 83.8 % relative peak area and 85.1 % relative peak area | Concentration of melfufen (ODP-5) [3, 18]: 11200 µg/mL and 11300 µg/mL | Purity of melfufen (ODP-5) [3, 18]: 74.2 % relative peak area and 74.7 % relative peak area | Concentration of melfufen (ODP-5) [3, 19]: 9800 µg/mL and 9500 µg/mL | Purity of melfufen (ODP-5) [3, 19]: 70 % relative peak area and 68.1 % relative peak area | visual appearance ([3]; 25° C., over time (T1a to T4a)): yellow to brown colouration that increased in intensity over time | change in melflufen concentration on storage ([3]; 25° C.): decrease over time | visual appearance [3, 12]: yellow to brown colouration that increased in intensity over time | time for which the formulation was stable ([4]; −20° C.): at least 6 months | change in melflufen (OPD-5) concentration ([4]; −20° C., 6 month test period): no notable change | melflufen purity retained (relative to the melflufen purity before storage of the formulation) ([4]; −20° C., 6 months): greater than 99.5% | colour change or precipitation (visual check) ([4]; −70° C. and −20° C., 6-8 month test period): No colour change or precipitation | change in melflufen (OPD-5) concentration ([4]; −70° C., 8 month test period): no notable change | melflufen purity retained (relative to the melflufen purity before storage of the formulation) ([4]; −70° C., 8 months): greater than 99.5% | solubility in propylene glycol [5]: readily soluble | solubility in PEG 300 [6]: readily soluble
